A word on the IC50: it is the concentration at which inhibition is half-maximal.

Data set [1] concerns the target memapsin 2 (Homo sapiens, UniProt P56817). In words: Inhibition of memapsin 2 beta-secretase activity (fluorogenic substrate FS-2). As to conditions: pH 4, 37° C., read-out: M2 Ki. Format: biochemical. The gist of the method: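 Memapsin 2 pre-incubated with compound for 20 min at pH 4, 37° C. Reaction started with fluorogenic substrate FS-2, […], derived from Swedish-variant APP beta-secretase site; inhibition measured from fluorescence.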

For data set [2], the target named is T1, memapsin 2 (Cricetulus griseus, UniProt G3IAK4).
T1 construct: endogenous in cells; host or cells: Chinese hamster ovary cells over-expressing human APP695 (London + Swedish)
In words: Cellular Aβ IC50 determination (Aβ40 sandwich ELISA). Format: cell-based, Chinese hamster. Particulars: CHO cells over-expressing human APP695 with London and Swedish mutations, 24 h, read-out: M2 IC50. The essentials:
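CHO cells overexpressing human APP695 (London and Swedish mutations) treated 48 h post-seeding with serially diluted compounds (top near 4 μM, 0.4% DMSO), 24 h at 37° C, 5% CO2. Medium Aβ40 measured by sandwich ELISA; levels relative to control fitted to 4-parameter IC50 model.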
On the technique in general: In an ELISA, binding on a coated surface is turned into a signal by an enzyme label.

For a further data set, the target named is cathepsin D (Homo sapiens, UniProt P07339). In words: Inhibition of cathepsin D activity (MALDI-TOF, substrate ELDLAVEFWHDR). Format: biochemical. As to conditions: substrate peptide ELDLAVEFWHDR, pH 4.1, 37 degrees C, read-out: CD Ki. As for the experimental part:
[The source words this procedure for another target and reports this target under the same test.] A substrate peptide NH3-ELDLAVEFWHDR-CO2 (SEQ ID NO.: 1) was dissolved at 2 mg/mL in 10% glacial acetic acid and diluted into 0.009M NaOH to obtain μM concentration at pH 4.1. After equilibration at 37 degrees C., the reactions were initiated by the addition of an aliquot of memapsin 2. Aliquots were removed at time intervals, and combined with an equal volume of MALDI-TOF matrix (α-hydroxycinnamic acid in acetone, 20 mg/mL) and immediately spotted in duplicate onto a stainless-steel MALDI sample plate. MALDI-TOF mass spectrometry was performed on a PE Biosystems Voyager DE. The instrument was operated at 25,000 accelerating volts in positive mode with a 150 ns delay. Ions with a mass-to-charge ratio (m/z) were detected in the range of 650-2000 atomic mass units. Data were analyzed by the Voyager Data Explorer module to obtain ion intensity data for mass species of substrates and corresponding products in a given mixture. Relative product formation was calculated as the ratio of signal intensity of the product to the sum of signal intensities of both product and the corresponding substrate. Relative product formed per unit time was obtained from non-linear regression analysis of the data representing the initial 15% formation of product using the model:
where k was the relative hydrolytic rate constant and T was time in seconds. Initial rates were expressed relative to uninhibited controls and fit to a tight-binding model of competitive inhibition as above.

The next data set has as its target T2, CYP3A4 (Homo sapiens, UniProt P08684).
T2 construct: host or cells: human liver microsomes
In words: CYP3A4 inhibition (midazolam metabolism in human liver microsomes). The class given is in vitro ADME. Particulars: substrate midazolam, read-out: CYP 3A4Ki. The gist of the method: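 Human liver microsomes (0.1 mg/mL) with midazolam at 1.25–10 μM and compound at 0.078–10 μM, in 100 mM phosphate pH 7.4 with NADPH regeneration at 37.2 °C, sampled at 20, 30 and 40 min. 1′-Hydroxymidazolam was quantified by LC-MS/MS. Ki was obtained by Dixon plots across substrate concentrations.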
On the technique in general: Liver microsomes are vesicles of endoplasmic reticulum, rich in cytochrome P450 enzymes.

The nature of data set [3]: Hepatic intrinsic clearance in liver microsomes. As to conditions: human, pH 7.4, human liver microsomes, in vitro clearance, read-out: HLM CL. Format: in vitro ADME. The method, then:
To 500 μl of 200 mM Na^+K^+phosphate buffer (pH 7.4), 100 μl of 1 mM EDTA solution was added followed by 100 μl of 2 mg protein/ml human liver microsomes. A 10 μl aliquot of test compound (20 mM stock in 50% acetonitrile) was diluted further with 40 μl of H2O (total assay volume […]. Assay mixture is incubated for 5 minutes at 37° C. The assay was initiated by addition of 250 μl of 4 mM NADPH solution. Incubation was continued at 37° C. Separate reaction mixtures were prepared for 0, 5, 10, 20, and 30 min durations. Individual reactions were halted by addition of 150 μl of 100% acetonitrile. Internal standard (10 μl of 100 ng/ml diazepam solution) was added. Concentration of the test compound in each separate reaction was measured using LC/MS/MS and a standard curve for the test compound according to standard procedures.
The hepatic intrinsic clearance in liver microsome was determined by the following procedure described by Davies and Morris (Davies, B. and Morris, T. (19930) Physiological parameters in laboratory animals and humans. Pharm Res. 10:1093-1095) detailing the relationship of in vitro clearance to physiological parameters in animals and human subjects.
The amount of compound remaining at each time point was expressed relative to the amount present in the initial (0 min) incubation. The relationship of relative amount vs. time was used to determine the half life of the compound in the microsome assay. The concentration independent rate constant, k1, was determined from rectangular hyperbolic fit:
where T is time (in minutes), from the relationship of relative amount vs. time. Alternatively, k1 was determined from a transform of the equation, where
Conversion to in vivo clearance was obtained from the relation (Davies and Morris, 1993):
where v=velocity of metabolism, [S] is the concentration of the compound, and volumes are expressed in mL.

Sequence of memapsin 2 (Homo sapiens, UniProt P56817) (P56817 46-501): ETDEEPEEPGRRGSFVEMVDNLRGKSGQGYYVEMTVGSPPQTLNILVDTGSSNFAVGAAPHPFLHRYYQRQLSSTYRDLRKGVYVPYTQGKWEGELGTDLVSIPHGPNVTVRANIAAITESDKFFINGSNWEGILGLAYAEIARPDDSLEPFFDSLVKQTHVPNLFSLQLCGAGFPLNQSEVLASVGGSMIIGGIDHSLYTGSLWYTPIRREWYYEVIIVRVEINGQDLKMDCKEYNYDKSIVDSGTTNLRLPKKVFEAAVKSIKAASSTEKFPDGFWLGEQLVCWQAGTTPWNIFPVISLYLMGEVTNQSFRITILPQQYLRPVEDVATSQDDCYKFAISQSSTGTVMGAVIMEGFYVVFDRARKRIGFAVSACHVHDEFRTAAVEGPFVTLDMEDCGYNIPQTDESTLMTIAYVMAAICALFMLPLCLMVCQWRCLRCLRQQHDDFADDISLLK
T2 sequence (P08684 whole entry): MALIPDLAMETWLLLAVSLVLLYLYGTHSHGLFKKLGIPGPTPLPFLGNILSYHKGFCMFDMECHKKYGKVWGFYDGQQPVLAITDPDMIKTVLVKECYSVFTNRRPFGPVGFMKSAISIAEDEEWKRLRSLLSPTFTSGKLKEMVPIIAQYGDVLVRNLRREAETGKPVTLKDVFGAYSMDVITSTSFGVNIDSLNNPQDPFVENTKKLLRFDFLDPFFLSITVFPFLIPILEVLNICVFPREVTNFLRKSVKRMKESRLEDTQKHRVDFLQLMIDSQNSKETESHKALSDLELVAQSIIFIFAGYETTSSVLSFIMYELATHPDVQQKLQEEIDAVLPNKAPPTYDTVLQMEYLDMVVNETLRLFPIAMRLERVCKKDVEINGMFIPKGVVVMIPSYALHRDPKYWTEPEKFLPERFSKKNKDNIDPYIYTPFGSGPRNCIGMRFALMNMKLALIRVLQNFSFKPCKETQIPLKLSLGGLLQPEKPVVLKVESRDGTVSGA
Sequence of cathepsin D (P07339 65-412, species assumed): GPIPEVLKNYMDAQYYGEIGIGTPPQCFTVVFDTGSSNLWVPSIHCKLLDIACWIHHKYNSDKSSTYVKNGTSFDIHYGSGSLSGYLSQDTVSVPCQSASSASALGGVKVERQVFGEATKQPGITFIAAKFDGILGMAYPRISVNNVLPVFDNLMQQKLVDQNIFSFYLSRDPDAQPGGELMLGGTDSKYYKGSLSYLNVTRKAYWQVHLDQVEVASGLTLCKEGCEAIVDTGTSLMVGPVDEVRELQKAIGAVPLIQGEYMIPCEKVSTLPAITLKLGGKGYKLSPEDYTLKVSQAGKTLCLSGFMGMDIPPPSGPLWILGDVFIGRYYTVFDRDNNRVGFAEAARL
T1 sequence (G3IAK4 22-501): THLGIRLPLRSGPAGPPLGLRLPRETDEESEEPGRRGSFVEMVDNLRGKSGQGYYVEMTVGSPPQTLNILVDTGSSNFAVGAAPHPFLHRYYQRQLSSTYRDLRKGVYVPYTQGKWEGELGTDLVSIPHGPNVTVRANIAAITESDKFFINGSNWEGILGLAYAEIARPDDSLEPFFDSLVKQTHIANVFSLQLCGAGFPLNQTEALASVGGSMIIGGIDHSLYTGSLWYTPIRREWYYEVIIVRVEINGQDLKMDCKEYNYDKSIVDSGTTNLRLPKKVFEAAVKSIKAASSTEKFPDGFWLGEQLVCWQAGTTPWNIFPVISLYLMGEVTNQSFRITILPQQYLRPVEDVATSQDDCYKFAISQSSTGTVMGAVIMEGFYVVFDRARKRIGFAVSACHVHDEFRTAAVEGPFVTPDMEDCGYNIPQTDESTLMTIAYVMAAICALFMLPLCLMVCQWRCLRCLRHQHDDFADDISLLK

In the case of `Cc1csc([C@H]2CCCN2C(=O)c2cc(C(=O)N[C@@H](Cc3ccccc3)[C@H](O)[C@H]3CCCN3)cc(N(C)S(C)(=O)=O)c2)n1` [1-23, N-((1R,2S)-1-hydroxy-3-phenyl-1-((R)-pyrrolidin-2-yl)propan-2-yl)-3-(N-methylmethylsulfonamido)-5-((R)-2-(4-methylthiazol-2-yl)pyrrolidine-1-carbonyl)benzamide], the Ki at memapsin 2 [1] is less than 250 nM; at cathepsin D it was greater than 500 nM; at CYP3A4 it was 5000 to 10000 nM. Further, the IC50 on memapsin 2 [2] was less than 500 nM.
On the same counts, the results for `Cc1csc([C@H]2CCCN2C(=O)c2cc(C(=O)N[C@@H](Cc3ccccc3)[C@H](O)[C@H]3CCCN3)cc(-c3ncco3)c2)n1` [1-19, N-((1R,2S)-1-hydroxy-3-phenyl-1-((R)-pyrrolidin-2-yl)propan-2-yl)-3-((R)-2-(4-methylthiazol-2-yl)pyrrolidine-1-carbonyl)-5-(oxazol-2-yl)benzamide] are less than 250 nM, greater than 500 nM, greater than 10000 nM and less than 500 nM.
Consider `Cc1csc([C@H]2CCCN2C(=O)c2cccc(C(=O)N[C@@H](Cc3cc(F)cc(F)c3)[C@H](O)[C@H]3CCCN3)c2)n1` [1-44, N-((1R,2S)-3-(3,5-difluorophenyl)-1-hydroxy-1-((R)-pyrrolidin-2-yl)propan-2-yl)-3-((R)-2-(4-methylthiazol-2-yl)pyrrolidine-1-carbonyl)benzamide], for which the Ki on memapsin 2 [1] was less than 250 nM; at cathepsin D it was greater than 500 nM; on CYP3A4 it was 1000 to 5000 nM. In addition, the IC50 on memapsin 2 [2] lay within 500 to 1000 nM. The CLint scaled at 200 μM in data set [3] is less than 400 mL/min/kg.
Consider `Cc1csc([C@H]2CCCN2C(=O)c2cc(I)cc(C(=O)N[C@@H](Cc3ccccc3)[C@H](O)[C@H]3CCCN3)c2)n1` [1-71, N-((1R,2S)-1-hydroxy-3-phenyl-1-((R)-pyrrolidin-2-yl)propan-2-yl)-3-iodo-5-((R)-2-(4-methylthiazol-2-yl)pyrrolidine-1-carbonyl)benzamide], for which the Ki at memapsin 2 [1] was less than 250 nM; at cathepsin D it was greater than 500 nM.
For the molecule `Cc1coc([C@H]2CCCN2C(=O)c2cc(C(=O)N[C@@H](Cc3cc(F)cc(F)c3)[C@H](O)[C@H]3CCCN3)cc(-c3ncco3)c2)n1` [1-69, N-((1R,2S)-3-(3,5-difluorophenyl)-1-hydroxy-1-((R)-pyrrolidin-2-yl)propan-2-yl)-3-((R)-2-(4-methyloxazol-2-yl)pyrrolidine-1-carbonyl)-5-(oxazol-2-yl)benzamide], the Ki on memapsin 2 [1] was less than 250 nM; on cathepsin D, 300 to 500 nM.
On the same counts, the results for `Cc1csc([C@H]2CCCN2C(=O)c2cccc(C(=O)N[C@@H](Cc3ccccc3)[C@H](O)[C@H]3C[C@@H](Oc4ccccc4)CN3)c2)n1` [1-74, N-((1R,2S)-1-hydroxy-1-((2R,4R)-4-phenoxypyrrolidin-2-yl)-3-phenylpropan-2-yl)-3-((R)-2-(4-methylthiazol-2-yl)pyrrolidine-1-carbonyl)benzamide] are less than 250 nM and greater than 500 nM.
For `Cc1csc([C@H]2CCCN2C(=O)c2cccc(C(=O)N[C@@H](Cc3ccccc3)[C@H](O)[C@H]3C[C@@H](OCc4ccccc4)CN3)c2)n1` [1-22, N-((1R,2S)-1-((2R,4R)-4-(benzyloxy)pyrrolidin-2-yl)-1-hydroxy-3-phenylpropan-2-yl)-3-((R)-2-(4-methylthiazol-2-yl)pyrrolidine-1-carbonyl)benzamide], the Ki was less than 250 nM at memapsin 2 [1], 300 to 500 nM on cathepsin D and 1000 to 5000 nM on CYP3A4. In addition, at memapsin 2 [2], the IC50 is less than 500 nM.
For the molecule `Cc1csc([C@H]2CCCN2C(=O)c2cc(C(=O)N[C@@H](Cc3ccccc3)[C@H](O)[C@H]3CCCN3)cc(N3CCCCS3(=O)=O)c2)n1` [1-78, N-((1R,2S)-1-hydroxy-3-phenyl-1-((R)-pyrrolidin-2-yl)propan-2-yl)-3-((R)-2-(4-methylthiazol-2-yl)pyrrolidine-1-carbonyl)-5-(thiazinanyl-S,S-dioxide)benzamide], the figures for the Ki on memapsin 2 [1] and at cathepsin D were less than 250 nM and greater than 500 nM, respectively.
As to `Cc1csc([C@H]2CCCN2C(=O)c2cc(C(=O)N[C@@H](Cc3ccccc3)[C@H](O)[C@H]3CCCN3)cc(-c3cccc(C(F)(F)F)c3)c2)n1` [1-43, N-((1R,2S)-1-hydroxy-3-phenyl-1-((R)-pyrrolidin-2-yl)propan-2-yl)-5-((R)-2-(4-methylthiazol-2-yl)pyrrolidine-1-carbonyl)-3′-(trifluoromethyl)biphenyl-3-carboxamide], the Ki was less than 250 nM on memapsin 2 [1] and greater than 500 nM on cathepsin D. Also, the IC50 at memapsin 2 [2] was greater than 1000 nM. Moreover, the CLint scaled at 200 μM in data set [3] is less than 400 mL/min/kg.
`C=CCO[C@H]1CN[C@@H]([C@@H](O)[C@H](Cc2ccccc2)NC(=O)c2cc(C(=O)N3CCC[C@@H]3c3nc(C)cs3)cc(-c3ncco3)c2)C1` [1-70, N-((1R,2S)-1-((2R,4R)-4-(allyloxy)pyrrolidin-2-yl)-1-hydroxy-3-phenylpropan-2-yl)-3-((R)-2-(4-methylthiazol-2-yl)pyrrolidine-1-carbonyl)-5-(oxazol-2-yl)benzamide]: the Ki at memapsin 2 [1] was less than 250 nM; on cathepsin D it was less than 300 nM.
As for `Cc1csc([C@H]2CCCN2C(=O)c2cc(C(=O)N[C@@H](Cc3cc(F)cc(F)c3)[C@H](O)[C@H]3CCCN3)cc(-c3ncco3)c2)n1` [1-49, N-((1R,2S)-3-(3,5-difluorophenyl)-1-hydroxy-1-((R)-pyrrolidin-2-yl)propan-2-yl)-3-((R)-2-(4-methylthiazol-2-yl)pyrrolidine-1-carbonyl)-5-(oxazol-2-yl)benzamide], the Ki was less than 250 nM on memapsin 2 [1] and less than 300 nM on cathepsin D. For the same molecule, the IC50 at memapsin 2 [2] was less than 500 nM.
As for `Cc1cc(C(=O)N[C@@H](Cc2cc(F)cc(F)c2)[C@H](O)[C@H]2CCCN2)cc(C(=O)N2CCC[C@@H]2c2nc(C)cs2)c1` [1-64, N-((1R,2S)-3-(3,5-difluorophenyl)-1-hydroxy-1-((R)-pyrrolidin-2-yl)propan-2-yl)-3-methyl-5-((R)-2-(4-methylthiazol-2-yl)pyrrolidine-1-carbonyl)benzamide], the Ki at memapsin 2 [1] is less than 250 nM; on cathepsin D, greater than 500 nM.
On the same counts, the results for `Cc1csc([C@H]2CCCN2C(=O)c2cc(C(=O)N[C@@H](Cc3ccccc3)[C@H](O)[C@H]3C[C@@H](Oc4ccccc4)CN3)cc(-c3ncco3)c2)n1` [1-79, N-((1R,2S)-1-hydroxy-1-((2R,4R)-4-phenoxypyrrolidin-2-yl)-3-phenylpropan-2-yl)-3-((R)-2-(4-methylthiazol-2-yl)pyrrolidine-1-carbonyl)-5-(oxazol-2-yl)benzamide] are less than 250 nM and 300 to 500 nM.

For the origin of these results see patent US20120214802A1, “PYRROLIDINE COMPOUNDS WHICH INHIBIT BETA-SECRETASE ACTIVITY AND METHODS OF USE THEREOF” (priority 2009, published 2012).
